From patent publication US8481724B2, “Synthesis of 2,4-pyrimidinediamines” (Rigel Pharmaceuticals, Inc., priority 2009, dated 2013)

Key:
[1] = water solubility in aqueous buffer under physiological conditions; format: physicochemical; settings: prodrug versus parent compound of formula IV, same conditions
[2] = cited from earlier work

| solubility relative to compound of formula IV (times greater) [1] | Structure (SMILES) | solubility ([2]; aqueous buffer under physiological conditions (same conditions as formula IV)) | water solubility ([2]; aqueous buffer under physiological conditions) |
| --- | --- | --- | --- |
| approximately 2000 times | COc1cc(Nc2ncc(F)c(Nc3ccc4c(n3)N(COP(=O)(O)O)C(=O)C(C)(C)O4)n2)cc(OC)c1OC [compound of formula II] | greater than 5 mg/mL |  |
|  | COc1cc(Nc2ncc(F)c(Nc3ccc4c(n3)NC(=O)C(C)(C)O4)n2)cc(OC)c1OC [compound of formula IV] |  | 1 to 2 µg/mL |
